# Measurements from EPA's ToxRefDB 2.
# Columns and labels:
# rat [1] = conditions: Prenatal developmental toxicity study, sprague dawley, Oral, Gavage/Intubation, dose end: 15 GD
# rat [2] = conditions: Carcinogenicity, fischer, Oral, Gavage/Intubation, dose end: 103 week, group: systemic
# mouse [3] = conditions: Subchronic oral toxicity in rodents, b6c3f1, Gavage/Intubation, dose end: 13 week, group: systemic
# rat [4] = conditions: Subchronic oral toxicity in rodents, fischer, Gavage/Intubation, dose end: 13 week, group: systemic
# rat [5] = conditions: Subchronic dermal toxicity, sprague dawley, Topical, dose end: 13 week, group: systemic, systemic / pathology microscopic / liver / inflammation + systemic / pathology microscopic / liver / necrosis + systemic / in life …
# mouse [6] = conditions: Sub-acute repeat dose toxicity; b6c3f1; Oral; Gavage/Intubation; dose end: 16 day; group: systemic; systemic / pathology gross / stomach / erosion + systemic / pathology gross / stomach / ulcer + systemic / pathology microscopic / stomach…
# rat [7] = conditions: Sub-acute repeat dose toxicity; fischer; Oral; Gavage/Intubation; dose end: 16 day; group: systemic; systemic / pathology microscopic / stomach / hyperkeratosis + systemic / pathology microscopic / stomach / hyperplasia + systemic / …
# mouse [8] = conditions: Carcinogenicity; b6c3f1; Oral; Gavage/Intubation; dose end: 103 week; group: systemic; systemic / pathology microscopic / stomach / acanthosis + systemic / pathology microscopic / stomach / hyperkeratosis + systemic / pathology…
# rat [9] = conditions: Subchronic oral toxicity in rodents, sprague dawley, Feed, dose end: 13 week, group: systemic
# dog [10] = conditions: Subchronic oral toxicity in nonrodent, beagle, Capsule, dose end: 93 day, group: systemic
# dog [11] = conditions: Chronic toxicity, beagle, Oral, Capsule, dose end: 52 week, group: systemic
# rat [12] = conditions: Combined chronic toxicity/carcinogenicity, sprague dawley, Oral, Feed, dose end: 104 week, group: systemic
# mouse [13] = conditions: Carcinogenicity, other, Oral, Feed, dose end: 104 week, group: systemic
# mouse [14] = conditions: Subchronic oral toxicity in rodents, b6c3f1, Feed, dose end: 13 week, group: systemic
# rat [15] = conditions: Subchronic oral toxicity in rodents, fischer, Feed, dose end: 13 week, group: systemic
# rat [16] = conditions: Carcinogenicity, fischer, Oral, Feed, dose end: 103 week, group: systemic
# rat [17] = conditions: Subchronic oral toxicity in rodents, fischer, Feed, dose end: 13 week, group: systemic; remark: listed apart in the source
# mouse [18] = conditions: Carcinogenicity; b6c3f1; Oral; Feed; dose end: 103 week; group: systemic; systemic / pathology gross / urinary bladder / stones + systemic / pathology microscopic / urinary bladder / hyperplasia + systemic / …
# rat [19] = conditions: Subchronic oral toxicity in rodents, fischer, Feed, dose end: 13 week, group: systemic, systemic / in life observation / body weight / body weight gain + systemic / pathology gross / urinary bladder / stones
# [20] = group: developmental, systemic / in life observation / body weight / fetal weight
# [21] = group: maternal, systemic / in life observation / body weight / body weight gain + systemic / in life observation / food consumption / food consumption + …
# [22] = systemic / pathology microscopic / stomach / acanthosis + systemic / pathology microscopic / stomach / hyperplasia + systemic / pathology …
# [23] = systemic / organ weight / kidney / relative to body weight + systemic / organ weight / liver / relative to body weight
# [24] = systemic / organ weight / kidney / relative to body weight + systemic / organ weight / liver / relative to body weight + systemic / …
# [25] = systemic / pathology microscopic / stomach / acanthosis + systemic / pathology microscopic / stomach / hyperkeratosis
# [26] = systemic / pathology microscopic / stomach / acanthosis + systemic / pathology microscopic / stomach / hyperkeratosis + systemic / in life …
# [27] = systemic / in life observation / body weight / body weight + systemic / in life observation / clinical signs / distended abdomens + systemic…
# [28] = systemic / organ weight / kidney / relative to body weight
# [29] = systemic / clinical chemistry / albumin / albumin + systemic / clinical chemistry / alkaline phosphatase (alp/alk) / alkaline phosphatase (…
# [30] = systemic / clinical chemistry / cholesterol / cholesterol
# [31] = systemic / clinical chemistry / alkaline phosphatase (alp/alk) / alkaline phosphatase (alp/alk) + systemic / clinical chemistry / …
# [32] = systemic / in life observation / body weight / body weight + systemic / in life observation / food consumption / food consumption + systemic…
# [33] = systemic / in life observation / body weight / body weight
# [34] = systemic / in life observation / body weight / body weight + systemic / organ weight / kidney / absolute + systemic / organ weight / liver…
# [35] = systemic / in life observation / body weight / body weight gain
# [36] = systemic / in life observation / body weight / body weight gain + systemic / pathology gross / urinary bladder / stones + systemic / …
# [37] = systemic / in life observation / body weight / body weight gain + systemic / in life observation / food consumption / food consumption + …
# [38] = systemic / pathology gross / urinary bladder / stones
# [39] = systemic / pathology gross / urinary bladder / stones + systemic / in life observation / body weight / body weight gain + systemic / …
structure (smiles),measurement,setting,value
CC(=O)OC1CC(C)OC(C)O1 (configuration not stated) [Dimethoxane],LEL,rat [1]; [20],500 mg/kg/day
same,LOAEL,rat [1]; [20],500 mg/kg/day
same,NEL,rat [1]; [20],250 mg/kg/day
same,NOAEL,rat [1]; [20],250 mg/kg/day
same,LOAEL,"rat [1]; group: maternal, systemic / in life observation / body weight / body weight gain + systemic / in life observation / food consumption / food consumption",250 mg/kg/day
same,LEL,rat [1]; [21],250 mg/kg/day
same,NEL,rat [1]; [21],125 mg/kg/day
same,NOAEL,rat [1]; [21],125 mg/kg/day
same,LEL,rat [2]; systemic / pathology microscopic / stomach / acanthosis + systemic / pathology microscopic / stomach / hyperkeratosis + systemic / pathology…,125 mg/kg/day
same,LOAEL,rat [2]; [22],> 250 mg/kg/day
same,NOAEL,rat [2]; [22],≥ 250 mg/kg/day
same,LEL,mouse [3]; [23],31 mg/kg/day
same,NEL,mouse [3]; [23],< 31 mg/kg/day
same,LOAEL,mouse [3]; [24],> 500 mg/kg/day
same,NOAEL,mouse [3]; [24],≥ 500 mg/kg/day
same,LEL,rat [4]; [25],62 mg/kg/day
same,LOAEL,rat [4]; [25],250 mg/kg/day
same,NEL,rat [4]; [26],31 mg/kg/day
same,NOAEL,rat [4]; [26],125 mg/kg/day
same,LEL,rat [5],300 mg/kg/day
same,LOAEL,rat [5],300 mg/kg/day
same,NEL,rat [5],100 mg/kg/day
same,NOAEL,rat [5],100 mg/kg/day
same,LEL,mouse [6],500 mg/kg/day
same,LOAEL,mouse [6],500 mg/kg/day
same,NEL,mouse [6],250 mg/kg/day
same,NOAEL,mouse [6],250 mg/kg/day
same,LEL,rat [7],125 mg/kg/day
same,LOAEL,rat [7],250 mg/kg/day
same,NEL,rat [7],< 125 mg/kg/day
same,NOAEL,rat [7],125 mg/kg/day
same,LEL,mouse [8],250 mg/kg/day
same,LOAEL,mouse [8],250 mg/kg/day
same,NEL,mouse [8],< 250 mg/kg/day
same,NOAEL,mouse [8],< 250 mg/kg/day
CO/C=C(/C(=O)OC)c1ccccc1Oc1cc(Oc2ccccc2C#N)ncn1 [Azoxystrobin],LOAEL,rat [9]; [27],211 mg/kg/day
same,NOAEL,rat [9]; [27],20.4 mg/kg/day
same,LEL,rat [9]; [28],22.4 mg/kg/day
same,NEL,rat [9]; [28],< 22.4 mg/kg/day
same,LOAEL,dog [10]; [29],250 mg/kg/day
same,NOAEL,dog [10]; [29],50 mg/kg/day
same,LEL,dog [10]; [30],10 mg/kg/day
same,NEL,dog [10]; [30],< 10 mg/kg/day
same,LOAEL,dog [11]; [31],200 mg/kg/day
same,NEL,dog [11]; [31],3 mg/kg/day
same,NOAEL,dog [11]; [31],25 mg/kg/day
same,LEL,dog [11]; systemic / organ weight / liver / absolute + systemic / clinical chemistry / cholesterol / cholesterol + systemic / clinical chemistry / …,25 mg/kg/day
same,NEL,rat [12]; systemic / clinical chemistry / aspartate aminotransferase (ast/sgot) / aspartate aminotransferase (ast/sgot) + systemic / clinical …,117 mg/kg/day
same,LOAEL,rat [12]; [32],82.4 mg/kg/day
same,NOAEL,rat [12]; [32],18.2 mg/kg/day
same,LOAEL,mouse [13]; [33],272 mg/kg/day
same,LEL,mouse [13]; [34],272 mg/kg/day
same,NEL,mouse [13]; [34],37.5 mg/kg/day
same,NOAEL,mouse [13]; [34],37.5 mg/kg/day
Nc1nc(N)nc(N)n1 [Melamine],LEL,mouse [14]; [35],900 mg/kg/day
same,NEL,mouse [14]; [35],< 900 mg/kg/day
same,LOAEL,mouse [14]; [36],> 2700 mg/kg/day
same,NOAEL,mouse [14]; [36],≥ 2700 mg/kg/day
same,LOAEL,rat [15]; [37],> 900 mg/kg/day
same,NOAEL,rat [15]; [37],≥ 900 mg/kg/day
same,LEL,rat [15]; [38],300 mg/kg/day
same,NEL,rat [15]; [38],< 300 mg/kg/day
same,LEL,rat [16]; [33],112 mg/kg/day
same,NEL,rat [16]; [33],< 112 mg/kg/day
same,LOAEL,rat [16]; systemic / pathology microscopic / kidney / inflammation + systemic / pathology gross / urinary bladder / stones,225 mg/kg/day
same,LEL,rat [17]; [38],75 mg/kg/day
same,LOAEL,rat [17]; [39],> 600 mg/kg/day
same,NEL,rat [17]; [39],37.5 mg/kg/day
same,NOAEL,rat [17]; [39],≥ 600 mg/kg/day
same,LEL,mouse [18],338 mg/kg/day
same,LOAEL,mouse [18],338 mg/kg/day
same,NEL,mouse [18],< 338 mg/kg/day
same,NOAEL,mouse [18],< 338 mg/kg/day
same,LEL,rat [19],875 mg/kg/day
same,LOAEL,rat [19],> 875 mg/kg/day
same,NEL,rat [19],500 mg/kg/day
same,NOAEL,rat [19],≥ 875 mg/kg/day
